Laboratory results reported in publication PMC5897986 (Frontiers in Endocrinology, 2018).

How the values were obtained:
[1] = system: metastatic, well- or moderately differentiated, non-functional enteropancreatic NET; details: patients, CLARINET trial, placebo 18 months; cited from earlier work
Excerpt: Somatostatin analogs (SSAs) are well-established antisecretory drugs with a favorable safety profile that have been used as first-line treatment to control hormone hypersecretion in functionally active neuroendocrine tumors (NET) for more than 30 years ([1], [2]). […] The relevance of SSAs in antiproliferative treatment has been a matter of debate for the past two decades.

[2] = system: SSTR-binding sites at the cell surface of H727 cells; experiment: competitive [125I]-Tyr11-SST14 radioligand binding assay, H727 cells; design: species or system human; details: only background binding, unlabeled peptide 0.01 nM–10 µM
Protocol: (§1) Peptide iodination and radioligand-binding assays were performed as previously described ([21]). Briefly, 10 nmol Tyr^11-somatostatin-14 (Tyr^11–SST14, Bachem, Bubendorf, Switzerland) were iodinated by the chloramin T method ([22]) with 1 mCi carrier-free Na^125I (NEZ033L010MC, Perkin Elmer, Waltham, MA, USA) and purified by HPLC (Analytic HPLC 1200 Series, Agilent, Santa Clara, CA, USA) (see Figure S1 in Supplementary Material). For competitive radioligand binding assays, 40,000 cells were seeded in 96-well plates and grown overnight. The next day, cells were incubated in binding buffer (50 mM Hepes, pH 7.4, 5 mM MgCl2, 1 mM CaCl2, 0.5% w/v BSA, cOmplete protease inhibitors) containing 100,000 counts per minute (cpm) [^125I]-Tyr^11-SST14 and increasing concentrations of unlabeled peptide. After 30 min at 37°C, cells were washed with ice-cold washing buffer (50 mM Tris–HCl, pH 7.4, 125 mM NaCl, 0.05% w/v BSA), lysed with 1 N NaOH, transferred to vials, and measured in a gamma counter (Wallac 1470 Wizard, Perkin Elmer, Waltham, MA, USA). The obtained cpm values were analyzed with GraphPad Prism 5.04, and IC50 values were calculated by non-linear regression (one site—fit logIC50, least squares fit).

[3] = system: human SSTR2 in BON-SSTR2 cells; experiment: microscopic SSTR2 internalization assay; type: cell-based; details: BON-SSTR2, 1 µM ligand, 30 min at 37°C, confocal microscopy
Protocol: (§2) Cells were grown on coverslips for at least 24 h. […] Cells were washed with PBS, fixated in 1:1 acetone/methanol for 2 min, and incubated with anti-SSTR2 primary antibody (sc365502, Santa Cruz Biotechnology, Dallas, TX, USA) diluted 1:50 in PBS overnight at 4°C. After washing with PBS, cells were incubated with a Cy3-conjugated goat anti-mouse secondary antibody (#115-165-146, Jackson ImmunoResearch, West Grove, PA, USA) diluted 1:1,000 in PBS for 1 h at room temperature. After washing with PBS, coverslips were briefly dipped into 96% ethanol, air-dried, and mounted on glass slides with Immu-Mount (Thermo Fisher Scientific, Waltham, MA, USA). Mounted cells were imaged using a confocal laser scanning microscope (LSM510, Carl Zeiss, Jena, Germany) using a helium–neon laser at 543 nm, LP560 emission filter, and 40× or 63× NeoFluar oil immersion objectives. RIN-1038-SSTR2-GFP cells were not immunostained after fixation, but otherwise treated the same. To visualize GFP fluorescence, an argon laser at 488 nm, LP505 emission filter was utilized on the same microscope.

[4] = system: human SSTR2 in QGP-1-SSTR2 cells; experiment: microscopic SSTR2 internalization assay; type: cell-based; details: QGP-1-SSTR2, 1 µM ligand, 30 min at 37°C, confocal microscopy
Protocol: as §2

[5] = system: SSTR-binding sites at the cell surface of LCC-18 cells; experiment: competitive [125I]-Tyr11-SST14 radioligand binding assay, LCC-18 cells; design: species or system human; details: only background binding, unlabeled peptide 0.01 nM–10 µM
Protocol: as §1

[6] = system: SSTR-binding sites at the cell surface of BON cells; experiment: competitive [125I]-Tyr11-SST14 radioligand binding assay, BON cells; design: species or system human; details: BON whole cells, 30 min at 37°C, unlabeled peptide 0.01 nM–10 µM, gamma counter; read-out: IC50, displacement of [125I]-Tyr11-SST14
Protocol: as §1

[7] = system: SSTR-binding sites at the cell surface of QGP-1 cells; experiment: competitive [125I]-Tyr11-SST14 radioligand binding assay, QGP-1 cells; design: species or system human; details: only background binding, unlabeled peptide 0.01 nM–10 µM
Protocol: as §1

[8] = system: SSTR-binding sites at the cell surface of UMC-11 cells; experiment: competitive [125I]-Tyr11-SST14 radioligand binding assay, UMC-11 cells; design: species or system human; details: UMC-11 whole cells, 30 min at 37°C, unlabeled peptide 0.01 nM–10 µM, gamma counter; read-out: IC50, displacement of [125I]-Tyr11-SST14
Protocol: as §1

Substance	median progression-free survival [1]	displacement of [125I]-Tyr11-SST14 binding [2]	SSTR2 internalization / redistribution [3]	SSTR2 internalization / redistribution [4]	displacement of [125I]-Tyr11-SST14 binding [5]	IC50 [6] [nM]	displacement of [125I]-Tyr11-SST14 binding [7]	IC50 [8] [nM]
lanreotide	not reached							
somatostatin-14		no displacement	functional, ligand-dependent SSTR2 internalization	functional, ligand-dependent SSTR2 internalization	no displacement	0.5 ± 0.16	no displacement	0.7 ± 0.29
